The record followed here is PMC6943434, “Novel Homo-Bivalent and Polyvalent Compounds Based on Ligustrazine and Heterocyclic Ring as Anticancer Agents” (Molecules, 2019).

Assay [1] concerns Hep G2 (hepatocarcinoma cell line). The experiment in a line: MTT cell viability assay, Hep G2. Type of assay: cell-based. The note with it: Homo sapiens, HepG2, 48 h, read-out: Antiproliferative Activity IC50 ± SEM, Hep G2. As to the method: (§1) The tested cells were obtained from Shanghai Institute of Biochemistry and Cell Biology of the Chinese Academy of Sciences (Shanghai, China). HeLa and Hep G2 cell lines were cultured in Dulbecco’s modified Eagle’s medium (DMEM; gibco, Life Technologies, Carlsbad, CA, USA) supplemented with 10% fetal bovine serum (FBS; Biological Industries), 100 U/mL penicillin-streptomycin (PS; gibco, Life Technologies, Carlsbad, CA, USA). MCF-7 and A549 cell lines were maintained in RPMI-1640 media (gibco, Life Technologies, Carlsbad, CA, USA) supplemented with 10% FBS and 100 U/mL PS. FaDu cell lines were cultured in minimum essential medium (MEM; Gibco, Life Technologies, Carlsbad, CA, USA) supplemented with 10% FBS and 100 U/mL PS. MCF 10A cell lines were maintained in Mammary MEGM kit (Lonza/Clonetics) supplemented with 100 ng/mL cholera toxin (Sigma, Shanghai, China). Cell lines were grown at 37 °C in a humidified atmosphere of 5% CO2.
(§2) The growth-inhibitory effects against HeLa, Hep G2, MCF-7, FaDu, and A549 cancer cells and normal cell lines MCF 10A were determined by MTT assay. […] Cells were seeded in 96 well plates at a density of 1 × 10^4 cells per well and incubated for 24 h at 37 °C in a humidified atmosphere of 5% CO2. The cells were then incubated with various concentrations of drugs for 48 h in a 5% CO2 incubator at 37 °C. After treatment with 1 mg/mL 3-(4,5-dimethylthiazol-2-yl)-2,5-diphenyltetrazolium bromide (MTT) solution for 4 h, the formazan crystals were dissolved in 100 µL DMSO in each well. Plates were read on a microplate reader (Thermo Varioskan Flash 3001) at 490 nm. The experiment was performed in triplicate. The inhibitory concentration at 50% (IC50) was calculated based on concentration-inhibition relationships via regression using SPSS software (Version 17.0).
(Formazan colour is commonly taken as a measure of viable cells.)

Assay [2] concerns MCF-7 (breast cancer cell line). As to the kind of experiment: MTT cell viability assay, MCF-7. Type of assay: cell-based. The settings on record: Homo sapiens, MCF7, 48 h, read-out: Antiproliferative Activity IC50 ± SEM, MCF-7. As to the method:
as §1, §2

Assay [3] has as its system FaDu (head and neck squamous carcinoma cell line). The experiment in a line: MTT cell viability assay, FaDu. The settings on record: for IC50: Homo sapiens, FaDu, 48 h, MTT, read-out: Antiproliferative Activity IC50 ± SEM, FaDu; for SI: selectivity index: SI = IC50 (MCF 10A)/IC50 (FaDu). Format: cell-based, human. As to the method:
as §1, §2

Assay [4] relates to A549 (epithelial cancer cell line). The experiment in a line: MTT cell viability assay, A549. Format: cell-based. The settings on record: Homo sapiens, 48 h, read-out: Antiproliferative Activity IC50 ± SEM, A549. The procedure:
as §1, §2

The subject of assay [5] is HeLa (cervical cancer cell line). The experiment in a line: MTT cell viability assay, HeLa. Format: cell-based. The note with it: Homo sapiens, 48 h, read-out: Antiproliferative Activity IC50 ± SEM, HeLa. The procedure: as §1, §2
In assay [6] the test system is MCF 10A (normal mammary epithelial cell). As to the kind of experiment: MTT cell viability assay, MCF 10A. Type of assay: cell-based. The settings on record: Homo sapiens, 48 h, normal cells, read-out: Antiproliferative Activity IC50 ± SEM, MCF 10A.

With `Cc1nc(C)c(CN(CCN(Cc2nc(C)c(C)nc2C)Cc2nc(C)c(C)nc2C)Cc2nc(C)c(C)nc2C)nc1C` [Compound 6a, N^1,N^1,N^2,N^2-Tetrakis((3,5,6-Trimethylpyrazin-2-yl)Methyl)Ethane-1,2-Diamine], the IC50 – broadly, the concentration needed to halve the response being measured – in assay [1] is above 100 µM; in assay [2], above 100 µM; in assay [3], above 100 µM; in assay [4] it was above 100 µM; in assay [5], above 100 µM; in assay [6], 90.3 ± 3.41 µM.

For `Cc1nc(C)c(CN(CCCN(Cc2nc(C)c(C)nc2C)Cc2nc(C)c(C)nc2C)Cc2nc(C)c(C)nc2C)nc1C` [Compound 6b, N^1,N^1,N^3,N^3-Tetrakis((3,5,6-Trimethylpyrazin-2-yl)Methyl)Propane-1,3-Diamine], the half-inhibitory concentration (IC50) in assay [1], in assay [2], in assay [3], in assay [4], in assay [5] and in assay [6] was above 100 µM in each case.

For the molecule `Cc1nc(C)c(CN(CCCCN(Cc2nc(C)c(C)nc2C)Cc2nc(C)c(C)nc2C)Cc2nc(C)c(C)nc2C)nc1C` [Compound 6c, N^1,N^1,N^4,N^4-Tetrakis((3,5,6-Trimethylpyrazin-2-yl)Methyl)Butane-1,4-Diamine], the concentration for half-maximal inhibition (IC50) in assay [1], in assay [2], in assay [3], in assay [4], in assay [5] and in assay [6] was above 100 µM in each case.

As for `Cc1nc(C)c(CN(CCCCCCN(Cc2nc(C)c(C)nc2C)Cc2nc(C)c(C)nc2C)Cc2nc(C)c(C)nc2C)nc1C` [Compound 6d, N^1,N^1,N^6,N^6-Tetrakis((3,5,6-Trimethylpyrazin-2-yl)Methyl)Hexane-1,6-Diamine], the IC50 in assay [1], in assay [2], in assay [3], in assay [4], in assay [5] and in assay [6] was above 100 µM in each case.

Regarding `Cc1nc(C)c(CN(CCCCCCCCN(Cc2nc(C)c(C)nc2C)Cc2nc(C)c(C)nc2C)Cc2nc(C)c(C)nc2C)nc1C` [Compound 6e, N^1,N^1,N^8,N^8-Tetrakis((3,5,6-Trimethylpyrazin-2-yl)Methyl)Octane-1,8-Diamine], the IC50 in assay [1] is 50.8 ± 1.35 µM; in assay [2], 66.36 ± 0.05 µM; in assay [3] it was 49.5 ± 1.61 µM; in assay [4], above 100 µM; in assay [5], 62.7 ± 4.19 µM; in assay [6] it was 85.4 ± 2.28 µM. For the same molecule, in assay [3], the “SI: selectivity index” value was found to be 1.73.

For `Cc1nc(C)c(CN2CCN(Cc3nc(C)c(C)nc3C)CC2)nc1C` [Compound 6h, 1,4-Bis((3,5,6-Trimethylpyrazin-2-yl)Methyl)Piperazine], the half-maximal inhibitory concentration (IC50) in assay [1], in assay [2], in assay [3], in assay [4], in assay [5] and in assay [6] was above 100 µM in each case.

With `Cc1nc(C)c(CN(CCO)Cc2nc(C)c(C)nc2C)nc1C` [Compound 6i, 2-(Bis((3,5,6-Trimethylpyrazin-2-yl)Methyl)Amino)Ethanol], the IC50 in assay [1], in assay [2], in assay [3], in assay [4], in assay [5] and in assay [6] was above 100 µM in each case.

For the molecule `Cc1nc(C)c(C(=O)NCCCNC(=O)c2nc(C)c(C)nc2C)nc1C` [Compound 8a, N,N′-(Propane-1,3-Diyl)Bis(3,5,6-Trimethylpyrazine-2-Carboxamide)], the IC50 in assay [1], in assay [2], in assay [3], in assay [4], in assay [5] and in assay [6] was above 100 µM in each case.

On to `Cc1nc(C)c(C(=O)NCCCCNC(=O)c2nc(C)c(C)nc2C)nc1C` [Compound 8b, N,N′-(Butane-1,4-Diyl)Bis(3,5,6-Trimethylpyrazine-2-Carboxamide)], for which the IC50 in assay [1], in assay [2], in assay [3], in assay [4], in assay [5] and in assay [6] was above 100 µM throughout.

With `Cc1nc(C)c(C(=O)NCCCCCCNC(=O)c2nc(C)c(C)nc2C)nc1C` [Compound 8c, N,N′-(Hexane-1,6-Diyl)Bis(3,5,6-Trimethylpyrazine-2-Carboxamide)], the IC50 in assay [1] is above 100 µM; in assay [2], above 100 µM; in assay [3] it was 80.4 ± 1.36 µM; in assay [4], above 100 µM; in assay [5], above 100 µM; in assay [6], 46.6 ± 0.65 µM.

Turning to `Cc1nc(C)c(C(=O)NCCCCCCCCNC(=O)c2nc(C)c(C)nc2C)nc1C` [Compound 8d, N,N′-(Octane-1,8-Diyl)Bis(3,5,6-Trimethylpyrazine-2-Carboxamide)], the IC50 in assay [1] was above 20 µM; in assay [2], 0.48 ± 0.003 µM; in assay [3], 0.11 ± 0.03 µM; in assay [4], 6.35 ± 0.05 µM; in assay [5] it was 3.31 ± 0.14 µM; in assay [6], 2.69 ± 0.46 µM. The “SI: selectivity index” value in assay [3] stood at 24.45.

`Cc1nc(C)c(C(=O)NCCCCCCCCCCCCNC(=O)c2nc(C)c(C)nc2C)nc1C` [Compound 8f, N,N′-(Dodecane-1,12-Diyl)Bis(3,5,6-Trimethylpyrazine-2-Carboxamide)]: the IC50 is above 20 µM in assay [1]; 0.158 ± 0.009 µM in assay [2]; 0.174 ± 0.01 µM in assay [3]; 2.46 ± 0.05 µM in assay [4]; 4.96 ± 1.62 µM in assay [5]; 0.051 ± 0.021 µM in assay [6]. Further, the “SI: selectivity index” value in assay [3] is recorded as 0.29.

For `O=C(/C=C/c1ccccc1)NCCCCCCCCNC(=O)/C=C/c1ccccc1` [Compound 9d, (2E,2′E)-N,N′-(Octane-1,8-Diyl)Bis(3-Phenylacrylamide)], the 50% inhibitory concentration (IC50) in assay [1] was above 20 µM; in assay [2] it was above 20 µM; in assay [3], 1.05 ± 0.091 µM; in assay [4], above 20 µM; in assay [5], above 20 µM; in assay [6], above 20 µM. For the same molecule, the “SI: selectivity index” value in assay [3] is above 18.98.

For `O=C(/C=C/c1ccccc1)NCCCCCCCCCCNC(=O)/C=C/c1ccccc1` [Compound 9e, (2E,2′E)-N,N′-(Decane-1,10-Diyl)Bis(3-Phenylacrylamide)], the half-maximal inhibitory concentration (IC50) was above 100 µM in assay [1]; above 100 µM in assay [2]; 11.3 ± 0.81 µM in assay [4]; above 100 µM in assay [5]; above 100 µM in assay [6]. Also, in assay [3], the “SI: selectivity index” value is on record as above 1851.85.

In the case of `O=C(/C=C/c1ccccc1)NCCCCCCCCCCCCNC(=O)/C=C/c1ccccc1` [Compound 9f, (2E,2′E)-N,N′-(Dodecane-1,12-Diyl)Bis(3-Phenylacrylamide)], the concentration for half-maximal inhibition (IC50) in assay [1] was above 20 µM; in assay [2], above 20 µM; in assay [3], 0.027 ± 0.002 µM; in assay [4], above 20 µM; in assay [5], above 20 µM; in assay [6] it was above 20 µM. For the same molecule, the “SI: selectivity index” value in assay [3] was above 740.74.

As to `O=C(/C=C/c1ccccc1)OCCCCCCCCOC(=O)/C=C/c1ccccc1` [Compound 9g, Octane-1,8-Diyl (2E,2′E)-Bis(3-Phenylacrylate)], the IC50 in assay [1], in assay [2], in assay [3], in assay [4], in assay [5] and in assay [6] was above 20 µM each time.

`O=C(/C=C/c1ccccc1)OCCCCCCCCCCOC(=O)/C=C/c1ccccc1` [Compound 9h, Decane-1,10-Diyl (2E,2′E)-Bis(3-Phenylacrylate)]: the IC50 in assay [1], in assay [2], in assay [3], in assay [4], in assay [5] and in assay [6] was above 20 µM throughout.

Turning to `O=C(/C=C/c1ccccc1)OCCCCCCCCCCCCOC(=O)/C=C/c1ccccc1` [Compound 9i, Dodecane-1,12-Diyl (2E,2′E)-Bis(3-Phenylacrylate)], the IC50 in assay [1], in assay [2], in assay [3], in assay [4], in assay [5] and in assay [6] was above 20 µM each time.
